# Results: patent US9980979B2, “Compounds and methods for enhancing erythropoiesis” (NATIONAL YANG-MING UNIVERSITY, priority 2008, dated 2018)
# Columns and labels:
# bone marrow cells = assay: DAF-based hemoglobin colorimetry assay on cultured bone marrow cells from phenylhydrazine-induced anemic mice; assay type: cell-based, C57BL/6JNarl mice; settings: about 0.1 to about 20 μg/ml, 4 days, with 50 mU/ml EPO; **P<0.01 versus control (0 μg/ml); FIG. 1
# Description: C57BL/6JNarl mice, 8-10 weeks of age, were purchased from the National Laboratory Animal Center (NLAC, Taiwan). Acute hemolytic anemia was induced by a single intraperitoneal (i.p.) injection of phenylhydrazine hydrochloride (Sigma-Aldrich) at a dose of 100 mg/kg in a phosphate buffered saline (PBS). Six days after the injection, bone marrow cells were isolated from mice and cultured according to the procedure described in Worthington et al., (1985) and Rosenthal et al. (1987) with minor modifications. […]
# In the next day, different concentrations of compound A (0, 0.1, 0.5, 2.5, 12.5 and 20 μg/ml) were added to the cells, respectively, and incubated for 4 days. The relative levels of hemoglobin were determined using DAF-based hemoglobin colorimetry assay according to Kaiho (1985) and Worthington (1985) with minor modifications. […] The absorbance at 610 nm was measured by Victor 2 1420 Multilable Counter (Wallac, PerkinElmer). Results were expressed as relative index±S.E. (n=6). Statistical significance was evaluated by Student's t test (**P<0.01 versus control group (0 μg/ml)).
# erythropoietin (Epo) = assay: liver expression of Epo in cisplatin-induced acute renal failure animal model (PCR); assay type: in vivo, mouse; settings: 30~90 mg/kg/day, day 28, versus untreated control group; FIG. 9
# Description: The effects of Compound A treatment on cisplatin-induced acute renal failure animal model were investigated. C57BL/6JNarl mice (8-week-old) were purchased from the National Laboratory Animal Center (NLAC, Taiwan). Cisplatin (Sigma-Aldrich) was dissolved in normal saline (0.9% (w/v) sodium chloride, Sigma-Aldrich) at a concentration of 1 mg/ml, and injected into mice intraperitoneally (i.p.) according to the following schedule: day 1, 7 mg/kg; day 5, 6 mg/kg; and day 9, 6 mg/kg. For cisplatin-untreated normal mice group, normal saline injections of corresponding volumes were given i.p. in parallel. At day 13, serum samples were collected and blood urea nitrogen (BUN) contents were assayed. […]
# At the end of the experiments described in EXAMPLE 6 (i.e., day 28), mice were sacrificed, kidney and liver tissues were removed, and bone marrow cells were isolated. […] The reverse-transcribed cDNA samples were analyzed by PCR using ABI GeneAmp™ system 2700 (Applied Biosystems) and the SYBR Green Master Mix kit (Applied Biosystems) using primers targeting toward mouse glyceraldehyde 3-phosphate dehydrogenase (GAPDH) (SEQ ID NOs: 5 and 6), erythropoietin (Epo) (SEQ ID NOs: 3 and 4) and hepatocyte growth factor (HGF) (SEQ ID NOs: 7 and 8) (Table 1). Results were expressed as relative index±S.E. (n=5˜6). […]
# [1] = system: erythroid progenitor cells (bone marrow cells); assay: burst-forming-units-erythroid (BFU-E) assay on bone marrow cells in culture; assay type: cell-based, C57BL/6JNarl mice; settings: 0.5~12.5 μg/ml, 9 days, with 2 U/ml Epo and 10 ng/ml IL-3; versus 0 concentration; FIG. 2
# Description: To investigate the effect of “Compound A” on erythroid progenitor cells, burst-forming-units-erythroid (BFU-E) assay was conducted according to the procedures described in Corazza et al. (2004) and Jin et al. (2003) with modifications. Briefly, 6-week-old C57BL/6JNarl mice were purchased from the National Laboratory Animal Center (NLAC, Taiwan). Bone marrow cells were isolated from the mice, and the cell suspension was adjusted to about 8.3×10^4 cells/ml in α-MEM containing 15% (v/v) FBS (Gibco), 1% (v/v) BSA (Sigma-Aldrich), 0.8% (w/v) methylcellulose (Sigma-Aldrich), 10 μM 2-mercaptoethanol (Sigma-Aldrich), 2 U/ml Epo (Recormon Epoetin, Roche), and 10 ng/ml IL-3 (Sigma-Aldrich). Cells were plated at approximately 7.5×10^4 cells/well in 24-well plates (Falcon). They were incubated with different concentrations of Compound A (0, 0.1, 0.5, 2.5 and 12.5 μg/ml), respectively, for 9 days in a humidified 37° C. incubator containing 5% CO2-95% air. The colonies were stained with 3-(4,5-dimethylthiazol-2-yl)-2,5-diphenyl-tetrazolium bromide (50 m/50 μl/well) (MTT; Sigma-Aldrich). Plates were photographed while colonies of more than 50 cells were counted. Results were expressed as mean±S.E. (n=3). Statistical significance was evaluated by Student's t test (*P<0.05 and **P<0.01 versus control group (i.e., 0 concentration)).
smiles,measurement,setting,value
"OC[C@H]1O[C@@H](Oc2c(O)cc(O)cc2/C=C/c2ccc(O)cc2)[C@H](O)[C@@H](O)[C@@H]1O [Compound A, 2,3,5,4′-tetrahydroxystilbene 2-O-β-D-glucopyranoside]",hemoglobin formation (relative index),bone marrow cells,significantly enhanced hemoglobin formation
same,expression of Epo in liver (relative index),erythropoietin (Epo),significantly increased the expression of Epo in liver
same,number of BFU-E colonies of bone marrow cells,[1],significantly increased the number of BFU-E colonies
